Each molecule was assayed against SIK2 (QIK) (SEQ ID NO: 11) (Homo sapiens, UniProt Q9H0K1) (assay: SIK2 kinase assay (radiometric, 10 μM ATP)). Conditions: compounds purchased from vendor library, read-out: SIK2 IC50.
Type: biochemical
Experimental: Procedure: Enzyme was incubated with substrate peptide in reaction buffer in the presence and absence of test compounds or Staurosporine. All additions were done on ice, followed by the addition of ATP mix. Wells were uniformly mixed using an Eppendorff plate shaker and incubated at 30° C. for 20 min, and stopped by the addition of 5 μL of 3% phosphoric acid. Volume was increased to 100 μL by adding 0.8% phosphoric acid which was then transferred to PC filter mats (Millipore), pre-equilibrated with 70% ethanol and water. Plates were washed thrice with 100 μL 0.8% phosphoric acid and dried for an hour at 60° C.

Chain of SIK2 (QIK) (SEQ ID NO: 11) (Q9H0K1 whole entry): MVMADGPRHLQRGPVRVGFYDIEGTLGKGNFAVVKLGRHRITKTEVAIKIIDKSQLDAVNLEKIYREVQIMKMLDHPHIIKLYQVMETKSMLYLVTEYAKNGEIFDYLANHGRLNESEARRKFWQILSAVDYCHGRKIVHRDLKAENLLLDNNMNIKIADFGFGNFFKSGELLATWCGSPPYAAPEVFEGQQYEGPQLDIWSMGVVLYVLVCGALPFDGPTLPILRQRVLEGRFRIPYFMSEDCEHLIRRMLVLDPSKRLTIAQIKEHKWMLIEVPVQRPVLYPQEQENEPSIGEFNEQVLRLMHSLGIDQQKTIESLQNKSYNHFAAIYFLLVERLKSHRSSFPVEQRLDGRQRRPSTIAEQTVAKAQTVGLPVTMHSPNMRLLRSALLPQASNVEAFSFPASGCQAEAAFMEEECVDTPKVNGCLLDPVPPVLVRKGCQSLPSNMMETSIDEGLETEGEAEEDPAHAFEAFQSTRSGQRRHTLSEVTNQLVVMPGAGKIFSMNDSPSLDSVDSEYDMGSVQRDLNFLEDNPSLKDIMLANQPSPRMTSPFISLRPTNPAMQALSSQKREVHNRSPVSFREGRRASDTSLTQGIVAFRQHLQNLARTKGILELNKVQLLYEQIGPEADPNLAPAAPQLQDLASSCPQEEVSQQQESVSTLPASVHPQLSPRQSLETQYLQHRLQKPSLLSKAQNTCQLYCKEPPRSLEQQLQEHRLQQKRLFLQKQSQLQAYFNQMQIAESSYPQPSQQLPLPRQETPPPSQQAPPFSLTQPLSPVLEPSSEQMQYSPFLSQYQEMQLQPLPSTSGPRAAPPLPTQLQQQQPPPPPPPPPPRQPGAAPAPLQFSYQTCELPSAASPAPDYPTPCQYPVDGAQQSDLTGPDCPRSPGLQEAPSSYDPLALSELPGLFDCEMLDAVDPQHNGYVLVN

IC50 | Compound
> 100 nM | COc1ccc(-c2ccnc3[nH]nc(-c4cccnc4)c23)cc1OC [compound 1, 4-(3,4-dimethoxyphenyl)-3-(pyridin-3-yl)-1H-pyrazolo[3,4-b]pyridine]
> 1000 nM | FC(F)(F)c1cccc(-c2ccnc3[nH]nc(-c4ccc5c(c4)OCO5)c23)c1 [compound 2, 3-(benzo[d][1,3]dioxol-5-yl)-4-(3-(trifluoromethyl)phenyl)-1H-pyrazolo[3,4-b]pyridine]
> 1000 nM | COc1cc(-c2ccnc3[nH]nc(-c4cccc(NS(C)(=O)=O)c4)c23)cc(OC)c1OC [compound 3, N-(3-(4-(3,4,5-trimethoxyphenyl)-1H-pyrazolo[3,4-b]pyridin-3-yl)phenyl)methanesulfonamide]
> 1000 nM | COc1cc(-c2n[nH]c3nccc(-c4cccc(C(=O)NCCN(C)C)c4)c23)cc(OC)c1OC [compound 4, N-(2-(dimethylamino)ethyl)-3-(3-(3,4,5-trimethoxyphenyl)-1H-pyrazolo[3,4-b]pyridin-4-yl)benzamide]
< 100 nM | COc1ccccc1-c1n[nH]c2nccc(-c3ccsc3)c12 [compound 5, 3-(2-methoxyphenyl)-4-(thiophen-3-yl)-1H-pyrazolo[3,4-b]pyridine]
> 100 nM | COc1cc(-c2n[nH]c3nccc(-c4ccc(C(C)C)cc4)c23)cc(OC)c1OC [compound 6, 4-(4-isopropylphenyl)-3-(3,4,5-trimethoxyphenyl)-1H-pyrazolo[3,4-b]pyridine]
> 1000 nM | OCCNC(O)c1cccc(-c2n[nH]c3nccc(-c4cccc(C(F)(F)F)c4)c23)c1 (stereo not drawn) [compound 7, 2-((hydroxy(3-(4-(3-(trifluoromethyl)phenyl)-1H-pyrazolo[3,4-b]pyridin-3-yl)phenyl)methyl)amino)ethanol]
> 1000 nM | COc1cccc(-c2ccnc3[nH]nc(-c4cccc(C(F)(F)F)c4)c23)c1 [compound 8, 4-(3-methoxyphenyl)-3-(3-(trifluoromethyl)phenyl)-1H-pyrazolo[3,4-b]pyridine]
> 1000 nM | COc1cc(-c2n[nH]c3nccc(-c4cccc(N(C)C)c4)c23)cc(OC)c1OC [compound 9, N,N-dimethyl-3-(3-(3,4,5-trimethoxyphenyl)-1H-pyrazolo[3,4-b]pyridin-4-yl)aniline]
< 100 nM | COc1ccccc1-c1n[nH]c2nccc(-c3ccoc3)c12 [compound 10, 4-(furan-3-yl)-3-(2-methoxyphenyl)-1H-pyrazolo[3,4-b]pyridine]
> 1000 nM | COc1cc(-c2n[nH]c3nccc(-c4cccc(C(N)=O)c4)c23)cc(OC)c1OC [compound 11, 3-(3-(3,4,5-trimethoxyphenyl)-1H-pyrazolo[3,4-b]pyridin-4-yl)benzamide]
> 1000 nM | CNC(=O)c1cccc(-c2ccnc3[nH]nc(-c4cccc(C(F)(F)F)c4)c23)c1 [compound 12, N-methyl-3-(3-(3-(trifluoromethyl)phenyl)-1H-pyrazolo[3,4-b]pyridin-4-yl)benzamide]

Same assay, conditions: read-out: SIK2 (QIK) (SEQ ID NO: 11) kinase inhibition result

IC50 | Compound
> 100 nM | COc1ccc(-c2n[nH]c3nccc(-c4ccsc4)c23)cc1 [Example 7, 3-(4-methoxyphenyl)-4-(thiophen-3-yl)-1H-pyrazolo[3,4-b]pyridine]
> 1000 nM | c1cc(-c2ccsc2)c2cc[nH]c2n1 [Example 20, 4-(thiophen-3-yl)-1H-pyrrolo[2,3-b]pyridine]
> 1000 nM | Fc1ccccc1-c1c[nH]c2nccc(-c3ccsc3)c12 [Example 22, 3-(2-fluorophenyl)-4-(thiophen-3-yl)-1H-pyrrolo[2,3-b]pyridine]
> 100 nM | Fc1cccc(-c2c[nH]c3nccc(-c4ccsc4)c23)c1Cl [Example 23, 3-(2-chloro-3-fluorophenyl)-4-(thiophen-3-yl)-1H-pyrrolo[2,3-b]pyridine]
> 100 nM | COc1cc(Cl)ccc1-c1c[nH]c2nccc(-c3ccsc3)c12 [Example 24, 3-(4-chloro-2-methoxyphenyl)-4-(thiophen-3-yl)-1H-pyrrolo[2,3-b]pyridine]
> 1000 nM | COc1ccc(-c2c[nH]c3nccc(-c4ccsc4)c23)cc1 [Example 25, 3-(4-methoxyphenyl)-4-(thiophen-3-yl)-1H-pyrrolo[2,3-b]pyridine]
> 100 nM | CCOc1ccccc1-c1c[nH]c2nccc(-c3ccsc3)c12 [Example 26, 3-(2-ethoxyphenyl)-4-(thiophen-3-yl)-1H-pyrrolo[2,3-b]pyridine]
> 100 nM | COc1cc(F)ccc1-c1c[nH]c2nccc(-c3ccsc3)c12 [Example 28, 3-(4-fluoro-2-methoxyphenyl)-4-(thiophen-3-yl)-1H-pyrrolo[2,3-b]pyridine]
> 100 nM | Clc1ccnc2[nH]cc(-c3ccsc3)c12 [Example 29, 4-chloro-3-(thiophen-3-yl)-1H-pyrrolo[2,3-b]pyridine]
> 1000 nM | COc1ccccc1-c1ccnc2[nH]cc(-c3ccsc3)c12 [Example 30, 4-(2-methoxyphenyl)-3-(thiophen-3-yl)-1H-pyrrolo[2,3-b]pyridine]
> 100 nM | Clc1cccc(-c2c[nH]c3nccc(-c4ccsc4)c23)c1 [Example 47, 3-(3-chlorophenyl)-4-(thiophen-3-yl)-1H-pyrrolo[2,3-b]pyridine]
> 1000 nM | CN(C)S(=O)(=O)c1ccccc1-c1c[nH]c2nccc(-c3ccsc3)c12 [Example 94, N,N-dimethyl-2-(4-(thiophen-3-yl)-1H-pyrrolo[2,3-b]pyridin-3-yl)benzenesulfonamide]
> 1000 nM | FC(F)(F)Oc1ccccc1-c1c[nH]c2nccc(-c3ccsc3)c12 [Example 99, 4-(thiophen-3-yl)-3-(2-(trifluoromethoxy)phenyl)-1H-pyrrolo[2,3-b]pyridine]
> 1000 nM | Fc1cc(OC(F)(F)F)ccc1-c1c[nH]c2nccc(-c3ccsc3)c12 [Example 100, 3-(2-fluoro-4-(trifluoromethoxy)phenyl)-4-(thiophen-3-yl)-1H-pyrrolo[2,3-b]pyridine]
> 100 nM | COc1ccc(-c2c[nH]c3nccc(-c4ccsc4)c23)c(OC)n1 [Example 101, 3-(2,6-dimethoxypyridin-3-yl)-4-(thiophen-3-yl)-1H-pyrrolo[2,3-b]pyridine]
> 100 nM | COc1ccccc1-c1c[nH]c2ncc(-c3ccsc3)cc12 [Example 113, 3-(2-methoxyphenyl)-5-(thiophen-3-yl)-1H-pyrrolo[2,3-b]pyridine]
> 1000 nM | COc1c(F)cc(F)cc1-c1c[nH]c2ncc(-c3ccsc3)cc12 [Example 126, 3-(3,5-difluoro-2-methoxyphenyl)-5-(thiophen-3-yl)-1H-pyrrolo[2,3-b]pyridine]
> 100 nM | N#Cc1ccc(-c2cnc3[nH]cc(-c4cccc(F)c4Cl)c3c2)s1 [Example 132, 5-(3-(2-chloro-3-fluorophenyl)-1H-pyrrolo[2,3-b]pyridin-5-yl)thiophene-2-carbonitrile]
> 100 nM | Cc1ncc(-c2cnc3[nH]cc(-c4cccc(F)c4Cl)c3c2)s1 [Example 137, 5-(3-(2-chloro-3-fluorophenyl)-1H-pyrrolo[2,3-b]pyridin-5-yl)-2-methylthiazole]
> 1000 nM | Clc1ccccc1-c1c[nH]c2ncc(-c3ccsc3)cc12 [Example 139, 3-(2-chlorophenyl)-5-(thiophen-3-yl)-1H-pyrrolo[2,3-b]pyridine]
> 1000 nM | Fc1ccc(-c2c[nH]c3ncc(-c4ccsc4)cc23)cc1Cl [Example 140, 3-(3-chloro-4-fluorophenyl)-5-(thiophen-3-yl)-1H-pyrrolo[2,3-b]pyridine]
